The values below come from patent publication US20210284691A1, “CBX8 CHROMDOMAIN INHIBITORS AND THE USES THEREOF” (Purdue Research Foundation, priority 2019, published 2021).

Square brackets hold non-standard residues; d marks the D form. Peptide text beside a SMILES is read from it. * marks the point of attachment. Tyr(3-Cl) = N[C@@H](Cc1ccc(O)c(Cl)c1)C(=O)O; Benzoyl(3,5-Cl2) = O=C(c1cc(Cl)cc(Cl)c1)*; Lys(Et2) = CCN(CC)CCCC[C@H](N)C(=O)O; Gly(cPent) = N[C@H](C(=O)O)C1CCCC1; NH(propargyl) = C#CCN*

The test system of series [1] is RWPE-1 cells, HEK293T cells. The experiment in a line: Viability of non-transformed / control cells. It counts as cell-based.
In series [2] the target is T1, CBX2 bulk chromatin binding (Homo sapiens, UniProt Q14781).
T1 construct: endogenous in cells; host or cells: HEK293T (A21); K562 (A22)
T1 sequence (Q14781 whole entry): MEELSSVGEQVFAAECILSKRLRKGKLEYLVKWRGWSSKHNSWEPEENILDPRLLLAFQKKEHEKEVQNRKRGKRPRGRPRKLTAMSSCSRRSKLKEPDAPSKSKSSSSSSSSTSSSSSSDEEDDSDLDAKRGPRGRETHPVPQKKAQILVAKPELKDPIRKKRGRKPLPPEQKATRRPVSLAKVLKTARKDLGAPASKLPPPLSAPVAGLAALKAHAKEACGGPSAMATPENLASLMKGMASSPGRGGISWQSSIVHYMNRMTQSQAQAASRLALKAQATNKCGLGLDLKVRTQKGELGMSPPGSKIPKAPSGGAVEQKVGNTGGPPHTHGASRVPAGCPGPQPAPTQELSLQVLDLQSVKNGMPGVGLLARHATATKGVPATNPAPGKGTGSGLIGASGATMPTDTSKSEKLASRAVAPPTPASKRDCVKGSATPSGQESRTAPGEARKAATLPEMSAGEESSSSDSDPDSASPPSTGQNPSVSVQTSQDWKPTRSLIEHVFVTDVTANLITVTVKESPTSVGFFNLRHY
As to the kind of experiment: Sequential salt extraction (SSE) in HEK293T cells. Type of series: cell-based. The conditions noted are these: 10 μM.

The target of series [3] is T2, CBX7 binding to chromatin (Homo sapiens, UniProt O95931).
T2 construct: endogenous in cells; host or cells: Hs68 fibroblasts (A17); HEK293T (A20)
T2 sequence (O95931 whole entry): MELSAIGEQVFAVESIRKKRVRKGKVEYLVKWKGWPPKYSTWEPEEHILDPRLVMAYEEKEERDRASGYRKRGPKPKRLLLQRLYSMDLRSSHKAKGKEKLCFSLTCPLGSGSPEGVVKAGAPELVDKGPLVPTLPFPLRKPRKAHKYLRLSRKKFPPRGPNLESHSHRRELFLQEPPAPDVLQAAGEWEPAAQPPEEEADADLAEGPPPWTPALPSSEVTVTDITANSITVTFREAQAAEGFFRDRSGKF
As to the kind of experiment: ChIP-qPCR in Hs68 fibroblast cells. Type of series: cell-based. The following applies: 100 μM, 4 h. How it is done: ChIP: Hs68 cells were seeded at 4×10^6 in a 10 cm cell culture plates 16 hours prior to treatment. Cells were treated with 100 μM SW2-110A or DMSO for four hours. ChIP was performed as described in Connelly et al., 2018. Birefly, cells were washed with PBS and fixed on the plate with CiA Fix buffer (50 mM HEPES, pH 8.0, 1 mM EDTA, 0.5 mM ETGA, 100 mM NaCl) and 1% formaldehyde for 10 min at room temperature. Crosslinking was quenched with 0.125 M glycine for 5 min at 4° C. Cells were washed once with PBS and lifted off the plate then resuspended in CiA NP Rinse buffer 1 (50 mM HEPES pH 8.0, 140 mM NaCl, 1 mM EDTA, 10% glycerol, 0.5% NP-40, 0.25% Triton X) for 10 min. Cells were pelleted at 1200×g for 5 min at 4° C. The supernatant was removed, and the cells were resuspended in CiA NP rinse buffer 2 (10 mM Tris pH 8.0, 1 mM EDTA, 0.5 mM EGTA, 200 mM NaCl). Cells were collected by centrifugation, 1200×g for 5 min. Supernatant was removed and the cells were washed twice with shearing buffer (0.1% SDS, 1 mM EDTA, 10 mM Tris HCl, pH 8.0). Cells were resuspended in shearing buffer and sonicated for 7 min with the probe (Branson). Lysate was centrifuged at 21,000×g for 15 min to remove debris. […]
qPCR: qPCR was performed on the isolated ChIP DNA using SYBR master mix (Thermo) and run on the BioRad CFX thermo cycler. […] Enrichment was determined by percent input. […]

Another series has as its target T3, CBX2 ChD (Homo sapiens, UniProt Q14781).
T3 construct: CBX chromodomain constructs; host or cells: E. coli BL21 CodonPlus RIL
T3 sequence (Q14781 12-70 limits assumed): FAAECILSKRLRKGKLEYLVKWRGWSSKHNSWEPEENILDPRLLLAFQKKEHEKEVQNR
As to the kind of experiment: Direct fluorescence polarization (FP) binding assay. A general note: In fluorescence polarisation assays a small probe gives low polarisation when free and higher when bound to something large.

In general, Kd refers to the concentration at which binding is half-saturated. Regarding `C#CCNC(=O)[C@H](CO)NC(=O)[C@H](CCCCN(CC)CC)NC(=O)[C@@H](NC(=O)[C@@H](NC(=O)[C@H](Cc1ccc(O)c(Cl)c1)NC(=O)c1cc(Cl)cc(Cl)c1)C1CCCC1)[C@@H](C)CC` [SW2_152F] ({Benzoyl(3,5-Cl2)}-[Tyr(3-Cl)][Gly(cPent)]I[Lys(Et2)]S-{NH(propargyl)}), in series [1], the “viability of RWPE-1 cells or HEK293T cells” value is recorded as “did not affect the viability”. In addition, the “CBX2 binding to chromatin, SSE” value in series [2] was “dramatically abrogated CBX2 binding to chromatin”. Further, the “CBX7 binding at target loci, ChIP-qPCR” value in series [3] is “not CBX7 binding”. The “selectivity for CBX2 over the other paralogs” value at CBX2 ChD (calculated from Kd values) was “at least 24 fold”. Moreover, at CBX2 ChD (read-out: Kd to CBX2), the Kd is roughly 80 nM.
